In ChEMBL document CHEMBL1148904, “Iridoid glycosides from Eremostachys glabra” (J Nat Prod, 2004):

Each compound was assayed on Radical scavenging activity (assay: Antioxidant activity assessed as DPPH radical scavenging activity after 30 mins).
Assay type: functional

Going from `COC(=O)C1=CO[C@@H](O[C@@H]2O[C@H](CO)[C@@H](O)[C@H](O)[C@H]2O)[C@@H]2[C@@H]1[C@@H](O)C[C@]2(C)OC(C)=O` to `COC(=O)C1=CO[C@@H](O[C@@H]2O[C@H](CO)[C@@H](O)[C@H](O)[C@H]2O)[C@H]2[C@H](C)C[C@@H](O)[C@@]12O`, the RC50 rises from 1.1 ×10⁻¹ mg/ml to 4.9 ×10⁻¹ mg/ml.

Work on `COC(=O)C1=CO[C@@H](O[C@@H]2O[C@H](CO)[C@@H](O)[C@H](O)[C@H]2O)[C@H]2C(C)=C[C@@H](O)[C@@]12O` yielded an RC50 of 4.1 ×10⁻¹ mg/ml.

`O=c1c(O)c(-c2ccc(O)c(O)c2)oc2cc(O)cc(O)c12` showed an RC50 of 2.88 ×10⁻⁵ mg/ml.
